Assay results: patent US8852554B2, “Radiolabelled PDE10 ligands” (Janssen Pharmaceutica NV, priority 2009, dated 2014)
“And” between values parts separate entries of the source, which are not always exact repeats. Identical values can stand only once.

Assay: Biodistribution studies of the 18F tracers in rats
Format: in vivo, male Wistar rats
Conditions: rat, i.v.
Protocol: Biodistribution studies were carried out in healthy male Wister rats (body weight 200-500 g) at 2 min, 30 min and 60 min post injection (p.i.) (n=3/time point). For |^18F|B-4 only the 2 min and 30 min time points were studied. […] Blood and major organs were collected in tared tubes and weighed. The radioactivity in blood, organs and other body parts was measured using an automated gamma counter. The distribution of radioactivity in different parts of the body at different time points p.i. of the tracer was calculated and expressed as percentage of injected dose (% ID), and as percentage of injected dose per gram tissue (% ID/g) for the selected organs. % ID is calculated as cpm in organ/total cpm recovered. For calculation of total radioactivity in blood, blood mass was assumed to be 7% of the body mass.

## COc1ccc(COc2ccc(-c3nn(CC[18F])cc3-c3ccncc3)cc2)nc1 [[^18F]B-4]
2 min p.i.
  % ID/g, Striatum: 0.467 ± 0.002 % ID/g
  striatum/blood ratio (from % ID/g normalized for body weight): 3.47
  striatum/cortex ratio (from % ID/g normalized for body weight): 1.35
  striatum/hippocampus ratio (from % ID/g normalized for body weight): 2.49
  total initial brain uptake: 0.40 % ID
30 min p.i.
  % ID in the urinary system: ~2.5 % ID
  % ID, Blood: 3.35 ± 0.5 % ID
  % ID, Carcass: 26.15 ± 1.2 % ID
  % ID, Cerebellum: 0.028 ± 0.002 % ID
  % ID, Cerebrum total: 0.208 ± 0.027 % ID
  % ID, Cortex: 0.022 ± 0.002 % ID
  % ID, Heart: 0.28 ± 0.1 % ID
  % ID, Hippocampus: 0.004 ± 0.000 % ID
  % ID, Intestines: 12 % ID and 11.98 ± 1.9 % ID
  % ID, Kidneys: 1.71 ± 0.3 % ID
  % ID, Liver: 47 % ID and 47.40 ± 3.5 % ID
  % ID, Lungs: 0.35 ± 0.1 % ID
  % ID, Rest of cerebrum: 0.162 ± 0.030 % ID
  % ID, Spleen + Pancreas: 0.56 ± 0.1 % ID
  % ID, Stomach: 8 % ID and 8.08 ± 3.7 % ID
  % ID, Striatum: 0.019 % ID and 0.019 ± 0.003 % ID
  % ID, Urine: 0.75 ± 0.1 % ID
  % ID/g normalized for body weight, Blood: 0.05 ± 0.01 % ID/g × body wt. in kg
  % ID/g normalized for body weight, Cerebellum: 0.029 ± 0.00 % ID/g × body wt. in kg
  % ID/g normalized for body weight, Cerebrum + Cerebellum: 0.04 ± 0.00 % ID/g × body wt. in kg
  % ID/g normalized for body weight, Cerebrum total: 0.043 ± 0.00 % ID/g × body wt. in kg
  % ID/g normalized for body weight, Cortex: 0.040 ± 0.01 % ID/g × body wt. in kg
  % ID/g normalized for body weight, Heart: 0.07 ± 0.01 % ID/g × body wt. in kg
  % ID/g normalized for body weight, Hippocampus: 0.029 ± 0.00 % ID/g × body wt. in kg
  % ID/g normalized for body weight, Kidneys: 0.19 ± 0.03 % ID/g × body wt. in kg
  % ID/g normalized for body weight, Liver: 1.05 ± 0.03 % ID/g × body wt. in kg
  % ID/g normalized for body weight, Lungs: 0.07 ± 0.00 % ID/g × body wt. in kg
  % ID/g normalized for body weight, Rest of cerebrum: 0.041 ± 0.00 % ID/g × body wt. in kg
  % ID/g normalized for body weight, Spleen + Pancreas: 0.11 ± 0.01 % ID/g × body wt. in kg
  % ID/g normalized for body weight, Striatum: 0.125 % ID/g × body wt. in kg and 0.125 ± 0.01 % ID/g × body wt. in kg
  % ID/g, Blood: 0.18 ± 0.03 % ID/g
  % ID/g, Cerebellum: 0.104 ± 0.005 % ID/g
  % ID/g, Cerebrum + Cerebellum: 0.151 ± 0.016 % ID/g
  % ID/g, Cerebrum total: 0.157 ± 0.019 % ID/g
  % ID/g, Cortex: 0.145 ± 0.026 % ID/g
  % ID/g, Heart: 0.24 ± 0.04 % ID/g
  % ID/g, Hippocampus: 0.108 ± 0.013 % ID/g
  % ID/g, Kidneys: 0.68 ± 0.12 % ID/g
  % ID/g, Liver: 3.85 ± 0.04 % ID/g
  % ID/g, Lungs: 0.24 ± 0.02 % ID/g
  % ID/g, Rest of cerebrum: 0.149 ± 0.019 % ID/g
  % ID/g, Spleen + Pancreas: 0.40 ± 0.02 % ID/g
  % ID/g, Striatum: 0.458 ± 0.041 % ID/g
  radioactivity concentration, the other brain regions (than striatum): ≤ 0.040 % ID/g corrected for body weight
  striatum/blood ratio (from % ID/g normalized for body weight): 2.61
  striatum/cerebellum ratio (from % ID/g normalized for body weight): 4.38
  striatum/hippocampus ratio (from % ID/g normalized for body weight): 4.25
